According to the supplement of paper PMC13380429:

Experiments:
A549-ACE2 [1] = assay: phospholipidosis EC50; higher = less potent phospholipidosis inducer
Vero E6 [2] = assay: cell viability relative to DMSO; higher = less toxic; settings: 72 h
Caco-2 [3] = assay: as above; settings: 72 h
HepG2 [4] = assay: as above; settings: 72 h
U2OS [5] = assay: as above; settings: 72 h
Calu-3 [6] = assay: as above; settings: 72 h
A549-ACE2 [7] = assay: drug-induced phospholipidosis relative to tamoxifen; higher = more phospholipidosis
Vero E6 [8] = assay: drug sensitivity score (DSS) for viability; higher = more toxic; extreme values may be limits of the assay; settings: 72 h
Caco-2 [9] = assay: as above; settings: 72 h
HepG2 [10] = assay: as above; settings: 72 h
U2OS [11] = assay: as above; settings: 72 h
Calu-3 [12] = assay: as above; settings: 72 h
[13] = tested on: A549-ACE2 infected with SARS-CoV-2; assay: cell count relative to DMSO; higher = less toxic; settings: 24 h
[14] = tested on: A549-ACE2 infected with SARS-CoV-2; assay: SARS-CoV-2 infection rate relative to DMSO; higher = more infection; settings: 24 h
Vero E6 [15] = assay: relative viability EC50 (midpoint between 100% and the lowest measured viability); higher = less toxic; settings: 72 h
Caco-2 [16] = assay: as above; settings: 72 h
HepG2 [17] = assay: as above; settings: 72 h
U2OS [18] = assay: as above; settings: 72 h
Calu-3 [19] = assay: as above; settings: 72 h
[20] = tested on: A549-ACE2 infected with SARS-CoV-2; assay: morphology score (similarity to uninfected cells); higher = more like uninfected cells; settings: 24 h

COc1cc2c(NC3CCN(C(C)C)CC3)nc(C3CCCCC3)nc2cc1OCCCN1CCCC1 [UNC0638]
Settings	SARS-CoV-2 infection rate [%]	cell count [%]	cell viability [%]	morphology score	phospholipidosis EC50 [µM]
A549-ACE2 [1], 24 h	–	–	–	–	0.85
A549-ACE2 [1], 48 h	–	–	–	–	0.916
A549-ACE2 [1], 72 h	–	–	–	–	2.15
Caco-2 [3], 1 nM	–	–	99.2	–	–
Caco-2 [3], 10 nM	–	–	95.3	–	–
Caco-2 [3], 100 nM	–	–	98.5	–	–
Caco-2 [3], 1000 nM	–	–	96.7	–	–
Caco-2 [3], 10000 nM	–	–	90.3	–	–
Calu-3 [6], 1 nM	–	–	108	–	–
Calu-3 [6], 10 nM	–	–	106	–	–
Calu-3 [6], 100 nM	–	–	105	–	–
Calu-3 [6], 1000 nM	–	–	109	–	–
Calu-3 [6], 10000 nM	–	–	14.4	–	–
HepG2 [4], 1 nM	–	–	91.9	–	–
HepG2 [4], 10 nM	–	–	103	–	–
HepG2 [4], 100 nM	–	–	107	–	–
HepG2 [4], 1000 nM	–	–	114	–	–
HepG2 [4], 10000 nM	–	–	28.9	–	–
U2OS [5], 1 nM	–	–	103	–	–
U2OS [5], 10 nM	–	–	104	–	–
U2OS [5], 100 nM	–	–	99.7	–	–
U2OS [5], 1000 nM	–	–	98.5	–	–
U2OS [5], 10000 nM	–	–	79.5	–	–
Vero E6 [2], 1 nM	–	–	104	–	–
Vero E6 [2], 10 nM	–	–	106	–	–
Vero E6 [2], 100 nM	–	–	101	–	–
Vero E6 [2], 1000 nM	–	–	99.2	–	–
Vero E6 [2], 10000 nM	–	–	91.5	–	–
[13], 0.3 µM	–	104	–	–	–
[13], 3 µM	–	120	–	–	–
[13], 10 µM	–	120	–	–	–
[13], 30 µM	–	85	–	–	–
[14], 0.3 µM	92	–	–	–	–
[14], 3 µM	21	–	–	–	–
[14], 10 µM	13	–	–	–	–
[14], 30 µM	37	–	–	–	–
[20], 0.3 µM	–	–	–	0.28	–
[20], 3 µM	–	–	–	0.76	–
[20], 10 µM	–	–	–	0.07	–
[20], 30 µM	–	–	–	-0.22	–

drug-induced phospholipidosis [%], A549-ACE2 [7]
Settings	0.3 µM	0.833333 µM	3.33333 µM	6.66667 µM	10 µM	30 µM
24 h	19	47.5	80.5	93.8	106	38.3
48 h	20.5	48.8	76.7	97.3	89.8	–
72 h	16	32	73.7	84.2	95.7	–

Settings	drug sensitivity score	relative viability EC50 [µM]
Caco-2 [9]	0	–
Caco-2 [16]	–	> 10
Calu-3 [12]	4.1	–
Calu-3 [19]	–	3.67
HepG2 [10]	3.1	–
HepG2 [17]	–	3.92
U2OS [11]	0.8	–
U2OS [18]	–	> 10
Vero E6 [8]	0	–
Vero E6 [15]	–	> 10

CCOC(=O)C1=C(COCCN)NC(C)=C(C(=O)OC)C1c1ccccc1Cl (configuration not stated) [amlodipine]
Settings	SARS-CoV-2 infection rate [%]	cell count [%]	cell viability [%]	morphology score	phospholipidosis EC50 [µM]
A549-ACE2 [1], 24 h	–	–	–	–	10.9
Caco-2 [3], 1 nM	–	–	97.9	–	–
Caco-2 [3], 10 nM	–	–	102	–	–
Caco-2 [3], 100 nM	–	–	98.2	–	–
Caco-2 [3], 1000 nM	–	–	93.5	–	–
Caco-2 [3], 10000 nM	–	–	94.2	–	–
Calu-3 [6], 1 nM	–	–	93.6	–	–
Calu-3 [6], 10 nM	–	–	104	–	–
Calu-3 [6], 100 nM	–	–	94.1	–	–
Calu-3 [6], 1000 nM	–	–	102	–	–
Calu-3 [6], 10000 nM	–	–	93.9	–	–
HepG2 [4], 1 nM	–	–	97.7	–	–
HepG2 [4], 10 nM	–	–	98.1	–	–
HepG2 [4], 100 nM	–	–	91.2	–	–
HepG2 [4], 1000 nM	–	–	99.2	–	–
HepG2 [4], 10000 nM	–	–	96.4	–	–
U2OS [5], 1 nM	–	–	94.8	–	–
U2OS [5], 10 nM	–	–	102	–	–
U2OS [5], 100 nM	–	–	96.6	–	–
U2OS [5], 1000 nM	–	–	101	–	–
U2OS [5], 10000 nM	–	–	97.5	–	–
Vero E6 [2], 1 nM	–	–	96.7	–	–
Vero E6 [2], 10 nM	–	–	90.2	–	–
Vero E6 [2], 100 nM	–	–	91.1	–	–
Vero E6 [2], 1000 nM	–	–	84.8	–	–
Vero E6 [2], 10000 nM	–	–	96.1	–	–
[13], 0.3 µM	–	96	–	–	–
[13], 3 µM	–	112	–	–	–
[13], 10 µM	–	119	–	–	–
[13], 30 µM	–	91	–	–	–
[14], 0.3 µM	107	–	–	–	–
[14], 3 µM	79	–	–	–	–
[14], 10 µM	23	–	–	–	–
[14], 30 µM	30	–	–	–	–
[20], 0.3 µM	–	–	–	-0.27	–
[20], 3 µM	–	–	–	0.49	–
[20], 10 µM	–	–	–	0.92	–
[20], 30 µM	–	–	–	0.35	–

drug-induced phospholipidosis [%], A549-ACE2 [7]
Settings	0.3 µM	0.833333 µM	3.33333 µM	6.66667 µM	10 µM	30 µM
24 h	4.07	-2.24	14.4	39.7	58.4	105
48 h	3.72	0.34	10.8	17.5	37	187
72 h	5.62	-0.058	6.8	13.1	21	181

Settings	drug sensitivity score	relative viability EC50 [µM]
Caco-2 [9]	0	–
Caco-2 [16]	–	> 10
Calu-3 [12]	0	–
Calu-3 [19]	–	> 10
HepG2 [10]	0	–
HepG2 [17]	–	> 10
U2OS [11]	0	–
U2OS [18]	–	> 10
Vero E6 [8]	0	–
Vero E6 [15]	–	> 10
